Values of other authors as cited in patent US20240335498A1, “COMPOSITION AND METHODS OF TREATMENT USING TRANSDERMAL SUPPLEMENTATION” (Xygenyx Inc., priority 2023, published 2024).
Square brackets hold non-standard residues; d marks the D form. Peptide text beside a SMILES is read from it. Cit = NC(=O)NCCC[C@H](N)C(=O)O

Experiments:
[1] = penetration enhancer used alone
[2] = test system: wide dynamic range neurons in the ventroposterolateral nucleus of the thalamus
[3] = topical application, concentrations 0.5-5%
[4] = topical formulations, within four weeks of treatment
F2-isoprostane = details: large doses of 1600-3200 IU/day
[5] = compared to α-tocopherol = 1.0
[6] = dietary supplementation, doses up to 400 IU/day
[7] = even when dietary intake occurs in equal portions
[8] = in vivo

Compound: CC(C)[C@@H]1CC[C@@H](C)C[C@H]1O [Menthol]
- increase of transdermal drug uptake (factor) [1]: ≥ 10

Compound: CCCCCc1cc(O)c2c(c1)OC(C)(C)C1CCC(C)=CC21 (stereo not drawn) [THC, Δ-9-tetrahydrocannabinol]
- power in mediating pain relative to morphine [2]: ten times more powerful

Compound: C=CCCCCCCCCC(=O)N[C@@H](Cc1ccccc1)C(=O)O [UP, Undecylenoyl phenylalanine]
- time to skin lightening effects [3]: ≥ 7 days

Compound: CC12CCC(CC1)C(C)(C)O2 [eucalyptol, Eucalyptol]
- increase of transdermal drug uptake (factor) [1]: more than 10

Compound: C/C(=C\CO)CCC[C@H](C)CCC[C@H](C)CCCC(C)C [phytol, Phytol]
- solubility in water: nearly insoluble

Compound: CC[C@H](C)[C@H](NC(=O)[C@H](CC(=O)O)NC(=O)[C@@H](N)CCCCN)C(=O)N[C@@H](CCCNC(N)=O)C(N)=O [tripeptide-10 citrulline, Tripeptide-10 citrulline] (H-KDI[Cit]-NH2)
- improvement of suppleness [4]: ≤ 54%

Compound: Cc1c(C)c2c(c(C)c1O)CC[C@@](C)(CCC[C@H](C)CCC[C@H](C)CCCC(C)C)O2 [α-tocopherol]
- blood plasma concentration of F2-isoprostane (F2-isoprostane): significantly lower
- relative biological activity [5]: 1.0
- reduction of the risk of coronary disease [6]: up to 34%
- reduction of the risk of developing neurodegenerative diseases such as Alzheimer's Syndrome or dementia ([6]; controlled trials): ≤ 24%

Compound: Cc1cc(O)c(C)c2c1O[C@](C)(CCC[C@H](C)CCC[C@H](C)CCCC(C)C)CC2 [β-tocopherol]
- relative biological activity [5]: 0.5

Compound: Cc1c(O)cc2c(c1C)O[C@](C)(CCC[C@H](C)CCC[C@H](C)CCCC(C)C)CC2 [γ-tocopherol]
- concentration in vivo relative to α-tocopherol [7]: roughly 10%
- relative biological activity [5]: 0.1

Compound: Cc1cc(O)cc2c1O[C@](C)(CCC[C@H](C)CCC[C@H](C)CCCC(C)C)CC2 [δ-tocopherol]
- relative biological activity [5]: 0.03

Compound: HGH: hormone comprising a peptide chain that is synthesized in the pituitary gland
- biological half-life [8]: 10-20 minutes
